Bridge positions count the residues as written; N and C are the ends. Peptide text beside a SMILES is read from it.
Key:
Set-up in all cases: PSA was purified from human seminal fluid as described previously (3); from tissue; host or cells: human seminal fluid
PSA [1] = target: T1, PSA (Homo sapiens, UniProt P07288); assay: GST-peptide IFMA: binding of GST-peptides to PSA captured by MAb 5E4; settings: for binding to PSA in GST-peptide IFMA (in words): GST fusion proteins; for Maximal binding (CPS): GST-peptide fusion proteins, Eu-labelled anti GST antibody as tracer
T1 sequence (P07288 25-261): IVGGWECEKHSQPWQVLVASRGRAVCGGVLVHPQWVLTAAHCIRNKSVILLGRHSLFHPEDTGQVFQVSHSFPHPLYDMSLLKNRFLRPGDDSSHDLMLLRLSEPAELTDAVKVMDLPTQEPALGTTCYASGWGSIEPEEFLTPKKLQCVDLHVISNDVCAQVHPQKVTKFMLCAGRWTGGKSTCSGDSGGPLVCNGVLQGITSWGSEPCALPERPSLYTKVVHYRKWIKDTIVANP
Procedure: After washing the binding of GST-peptide was quantified by IFMA using an Eu-labelled anti GST antibody as tracer. Data represent mean values from duplicate wells ±standard error (SE).
The solid phase antibodies used in the IFMAs were coated onto microtitration wells at a concentration of 5 μg/mL in TBS for 16 h at 22° C., the solution was discarded and the wells were saturated with 10 g/L bovine serum albumin in TBS for 3 h at 22° C. The antibodies used as tracers were labeled with a Eu^3+ chelate as described previously (26). The assay buffer was 50 mM Tris-HCL, pH 7.7, 150 mM NaCl, 33.3 μM bovine serum albumin, 1 μM bovine globulin.
The binding of individual phage clones to PSA was tested by IFMA (phage IFMA). In the phage IFMA, about 30 ng of PSA was added to MAb 5E4 coated wells for 1 h. After washing (Buffer: 150 mM NaCl, 7.7 mM NaN3, 0.2 g/L Tween 20), 15 μL of phage and 200 μl assay buffer was added. After incubation for 1 h, the wells were washed and filled with 200 μl of assay buffer containing 50 ng europium-labeled anti phage monoclonal antibody recognizing the M13 coat protein of the phage. After incubation for 60 min, the wells were washed 4 times, and enhancement solution (EG&G-Wallac) was added. The fluorescence was quantified with a 1234 DELFIA Research fluorometer (EG&G-Wallac). Binding of GST-peptide to PSA was determined by an IFMA (GST-peptide IFMA) similar to the one for phage peptides except that Eu^3+-labeled antibody to GST was used. Various amounts of GST-peptide or wild type GST were added to wells containing captured PSA in 200 μL of assay buffer and incubated for 1 h. To test the effect of Zn^2+ on the binding between GST-peptide and PSA, various concentrations of Zn^2+ (1-200 μM) were added to the buffer in the incubation step of GST-peptide and PSA. In competition experiments, GST-peptide (167 nM) or wild type GST were first incubated with increasing amounts of PSA (0-333 nM) in 0.5% BSA-TBS buffer for 60 min, then added to wells containing PSA captured by MAb 5E4. After incubation for 1 h the wells were washed and Eu^3+-labeled anti GST antibody was added. After further incubation and washing the bound fluorescence was measured as described above. When assessing the binding of the GST-peptides to other proteinases, including chymotrypsin, cathepsin G, trypsin, and kallikrein, these proteinases were captured by their specific antibodies coated to the microtitration well. Recombinant hK2 was captured by MAb 5E4, which is known to bind hK2 (24). For assessing the binding of the GST-peptides with complexes of PSA, including PSA-ACT and PSA-α1-protease inhibitor (PSA-API) (28), the complexes were captured by antibodies against ACT and API, respectively. After capturing the various proteinases or PSA complexes, GST-peptide was added and binding was monitored as described above for the GST-peptide IFMA.

PSA [2] = target: T1, PSA; assay: Surface plasmon resonance, GST-peptides on PSA captured by MAb H117; type: binding
Procedure: The binding kinetics of selected peptides to PSA was studied by surface plasmon resonance (29) on a BIAcore 2000™ instrument (Biacore AB, Uppsala, Sweden). PSA was captured to the solid phase by MAb H117 which binds to the same epitope as MAb 5E4 (30). The capture antibody was covalently coupled onto the surface of the CM5 sensor chip according to the manufacturer's instructions, using coupling levels of 5000 resonance units (RU). PSA was captured by injection of 416 nM of PSA in PBS, 4-min contact time (5 μl/min) and 60 min wash (20 μl/min) providing ligand levels in the range 500-600 RUs. Each analyte (GST-peptide), at various concentrations, was injected for 1 min at 20 μl/min flow rate. […] PSA-binding to either chemically activated/deactivated blank surface or MAb H117 alone was subtracted as a non-specific interaction. Regeneration after each measurement cycle was done with 3×0.5 min injections of 10 mM HCl. Binding data were analyzed using the BIAEVALUATION software.
The association rate constat (ka), dissociation rate constant (kd) and equilibrium dissociation constant (KD) for GST-peptides to PSA were measured by surface plasmon resonance. […]
The binding kinetics and affinity of the peptides to PSA was estimated by surface plasmon resonance. Increasing concentrations of GST-peptides were injected over PSA captured by MAb H117. Background-corrected sensorgrams were fitted to single-site interaction between GST-peptide and PSA using three different GST-peptide concentrations and the rate equation: d(GST-peptide:PSA)/dt=ka(GST-peptide)×(PSA)−kd(GST-peptide:PSA).

PSA [3] = target: T1, PSA; assay: PSA activity measurements with modified peptides, substrate S-2586 (Example 5); type: biochemical; settings: ratio of OD 405 nm of PSA-peptide to PSA alone after 60 minutes; ratio > 1.1 interpreted as active
Procedure: PSA activity measurements: The effect of different peptides on the activity of PSA was studied by using chymotrypsin substrate S-2586 (MeO-Suc-Arg-Pro-Tyr-pNA) (Chromogenix, Mölndal, Sweden). 77 pmoles (2 μg) of PSA, substrate and 10 μmoles of different peptides were incubated in Tris-buffer (10 mM Tris and 150 mM NaCl at pH 7.8) with 0.2 mM concentration of the substrate at room temperature. PSA reaction without any peptide was used as basic level control. Reaction was measured after 60 minutes incubation at […] using Multiscan RC photometer (Labsystems, Finland). The effect of the peptides was calculated as a ratio from the OD value of PSA-peptide complex to PSA alone after 60 minutes incubation.

[4] = average at 3 analyte concentrations
[5] = zinc 0 μM, average of 3 fits, analyte 3.4-8.5 μM
[6] = zinc 1 μM, single fit, 3.4 μM peptide
[7] = zinc 10 μM, single fit, 3.4 μM peptide
[8] = zinc 30 μM, single fit, 3.4 μM peptide

For CVFTSDYAFC [Peptide A-1], the “binding to PSA in GST-peptide IFMA (in words)” value (PSA [1]) was “less efficiently than C-4”, the “Maximal binding (CPS)” value (PSA [1]) was 219000 CPS and the “ka × 10^3 (1/Ms)” value (PSA [2]; [4]) was 10.3 × 10^3 1/Ms. For the same compound, the “kd × 10^−3 (1/s)” value (PSA [2]; [4]) was 80 × 10^−3 1/s, the Kd (PSA [2]; [5]) was 7.8 µM and the “ka × 10^3 (1/Ms)” value (PSA [2]; [5]) was 10.3 × 10^3 1/Ms. For the same compound, the “kd × 10^−3 (1/s)” value (PSA [2]; [5]) was 80 × 10^−3 1/s, the “increase (fold) of affinity” value (PSA [2]; zinc 1 μM versus 0 μM) was 3 fold and the “ka × 10^3 (1/Ms)” value (PSA [2]; [6]) was 1.8 × 10^3 1/Ms. The “kd × 10^−3 (1/s)” value (PSA [2]; [6]) was 4.7 × 10^−3 1/s, the “increase (fold) of affinity” value (PSA [2]; zinc 10 μM versus 0 μM) was 5.9 fold and the “ka × 10^3 (1/Ms)” value (PSA [2]; [7]) was 1.2 × 10^3 1/Ms. The “kd × 10^−3 (1/s)” value (PSA [2]; [7]) was 1.6 × 10^−3 1/s, the “increase (fold) of affinity” value (PSA [2]; zinc 30 μM versus 0 μM) was 7.7 fold and the Kd (PSA [2]; [8]) was 1 µM. For the same compound, the “ka × 10^3 (1/Ms)” value (PSA [2]; [8]) was 1.9 × 10^3 1/Ms, the “kd × 10^−3 (1/s)” value (PSA [2]; [8]) was 2.0 × 10^−3 1/s and the PSA-peptide/PSA ratio (PSA [3]) was 2.3.

`CC(C)C[C@@H]1NC(=O)[C@H](Cc2ccc(O)cc2)NC(=O)[C@H](CC(=O)O)NC(=O)[C@H](Cc2ccc(O)cc2)NC(=O)[C@H](CC(N)=O)NC(=O)[C@H](Cc2c[nH]cn2)NC(=O)[C@H](C)NC(=O)[C@H](Cc2ccccc2)NC(=O)[C@H](C(C)C)NC(=O)[C@@H](N)CSSC[C@@H](C(=O)O)NC(=O)[C@H](C(C)C)NC1=O` [Peptide B-2] (H-CVFAHNYDYLVC-OH; disulfide 1-12; N-terminus assumed) was tested, and the “binding to PSA in GST-peptide IFMA (in words)” value (PSA [1]) was “less efficiently than C-4”, the “Maximal binding (CPS)” value (PSA [1]) was 428000 CPS and the “kd × 10^−3 (1/s)” value (PSA [2]; [4]) was 57 × 10^−3 1/s. The “kd × 10^−3 (1/s)” value (PSA [2]; [5]) was 57 × 10^−3 1/s, the “kd × 10^−3 (1/s)” value (PSA [2]; [6]) was 3.5 × 10^−3 1/s and the “increase (fold) of affinity” value (PSA [2]; zinc 10 μM versus 0 μM) was 6 fold. For the same compound, the “kd × 10^−3 (1/s)” value (PSA [2]; [7]) was 1.6 × 10^−3 1/s, the “increase (fold) of affinity” value (PSA [2]; zinc 30 μM versus 0 μM) was 4.7 fold and the “kd × 10^−3 (1/s)” value (PSA [2]; [8]) was 0.6 × 10^−3 1/s. It also gave a PSA-peptide/PSA ratio (PSA [3]) of 3.0.

Source: patent US7414023B2, “Peptide ligands for prostate specific antigen” (Licentia Ltd., priority 2000, dated 2008)
